Measurements from patent publication US20220259551A1, “METHODS OF OPTIMIZED EUGLENA FERMENTATION USING ENGINEERED TANK DESIGN” (NOBLEGEN INC., priority 2019, published 2022).

System: Euglena gracilis Z
Experiment: Effect of organic acids, with or without glucose, on Euglena growth in shake flasks (Example 9)
Assay type: cell-based
Conditions: for % Increase in biomass between 48 h and 120 h / Net change in biomass: higher levels of acids (~2-5 g/L) solely or with glucose (~15 g/L); for higher acid contribution to biomass when fed along with glucose vs maximum acid alone contribution: higher acid concentrations (2-5 g/L); for higher acid contribution to biomass when fed along with glucose vs maximum acid alone contribution / further improvement in net biomass concentration compared to 48 h: end of 120 h; for higher biomass compared to control (glucose alone): higher levels of acids (~2-5 g/L) + glucose ~15 g/L; for higher biomass compared to control (glucose alone) / higher biomass compared to glucose alone (control) / net biomass: end of 48 h; for higher biomass compared to glucose alone (control): lower acid supplementation (~0.0005-0.05 g/L) + glucose 15 g/L
[1] = no glucose, acid conc. 0.05 g/L, 48 h
[2] = fumaric acid 0.0005 g/L + glucose 15 g/L, 48 h
[3] = lactic acid 0.05 g/L + glucose 15 g/L, 48 h

| Compound | % Increase in biomass between 48 h and 120 h | Net change in biomass (incubation 48 h) | Net change in biomass (incubation 120 h) | Net biomass conc. (48 h) [1] | higher acid contribution to biomass when fed along with glucose vs maximum acid alone contribution | higher biomass compared to control (glucose alone) | net biomass (~5 g/L as sole carbon source) | also measured |
| --- | --- | --- | --- | --- | --- | --- | --- | --- |
| O=C(O)/C=C/C(=O)O [Fumaric acid only] | 4.8% | 2.10 g/L | 2.20 g/L | – | – | – | – | Net biomass conc. (48 h) (no glucose, acid conc. 0.0005 g/L, 48 h): 0.70 g/L |
| O=C[C@H](O)[C@@H](O)[C@H](O)[C@H](O)CO [Glucose (Control)] | 0.0% | 6.50 g/L | 6.50 g/L | – | – | – | – | Net biomass conc. (48 h) (Glucose conc. 15 g/L, no acid, 48 h): 6.70 g/L |
| CC(O)C(=O)O (stereo not drawn) [Lactic acid only] | 9.5% | 2.10 g/L | 2.30 g/L | 0.60 g/L | – | – | – | – |
| O=C(O)CC(O)C(=O)O (stereo not drawn) [Malic acid only] | −7.1% | 1.40 g/L | 1.30 g/L | 0.60 g/L | – | – | – | – |
| CC(=O)C(=O)O [Pyruvate only] | −11.1% | 0.90 g/L | 0.80 g/L | 1.00 g/L | – | – | – | – |
| O=C(O)CCC(=O)O [Succinic acid only] | 13.6% | 2.20 g/L | 2.50 g/L | 0.70 g/L | – | – | – | – |
| O=C(O)/C=C/C(=O)O [fumaric acid] | – | – | – | – | 46.67% | 12.3% | 2.10 g/L | conversion efficiency (15 g/L glucose and 2 g/L fumaric acid, 120 h): 57.4%; conversion efficiency (15 g/L glucose and 5 g/L fumaric acid, 120 h): 58.41%; biomass yield (g)/g of carbon, higher than glucose alone [2]: 8.4%; higher conversion efficiency compared to glucose alone (15 g/L) [2]: 21.9%; maximum biomass obtained (fumaric acid 2 g/L and 5 g/L): ~1.5 g/L; higher biomass compared to glucose alone (control): 7.5% |
| CC(O)C(=O)O (stereo not drawn) [lactic acid] | – | – | – | – | 5.56% | 1.5% | 2.10 g/L | biomass yield (g)/g of carbon [3]: 1.35 g/g of carbon; biomass yield (g)/g of carbon, higher than the control [3]: ~13%; conversion efficiency [3]: 54.8%; conversion efficiency, higher than the glucose control [3]: ~8%; higher biomass compared to glucose alone (control): 13.4%; further improvement in net biomass concentration compared to 48 h (~5 g/L as sole carbon source): 9.5% |
| O=C(O)CC(O)C(=O)O (stereo not drawn) [malic acid] | – | – | – | – | 63.64% | 4.6% | 1.40 g/L | higher biomass compared to glucose alone (control): −3% |
| CC(=O)C(=O)O [pyruvate, pyruvic acid] | – | – | – | – | 72.73% | – | – | net biomass (~2 g/L as sole carbon source): 0.90 g/L |
| O=C(O)CCC(=O)O [succinate, succinic acid] | – | – | – | – | – | 3.1% | 2.20 g/L | further improvement in net biomass concentration compared to 48 h (~5 g/L as sole carbon source): 13.6% |
